Measurements as given in patent publication US10905692B2, “Combination therapy for treating malignancies” (Agios Pharmaceuticals, Inc., priority 2015, dated 2021).

Experiment: blood bilirubin in subjects with a UGT1A1 mutation receiving COMPOUND 1
Format: in vivo, human
Description: All toxicity ≥Grade 3 not due to underlying AML or complications of the disease or myelosuppressive treatment, with the exception of ≥Grade 3 blood bilirubin increases in subjects with a UGT1A1 mutation receiving COMPOUND 1.

## CC(C)(O)CNc1nc(Nc2ccnc(C(F)(F)F)c2)nc(-c2cccc(C(F)(F)F)n2)n1 [COMPOUND 1, 2-methyl-1-[(4-[6-(trifluoromethyl)pyridin-2-yl]-6-{[2-(trifluoromethyl)pyridin-4-yl]amino}-1,3,5-triazin-2-yl)amino]propan-2-ol]
  blood bilirubin increases: isolated blood bilirubin increases have been seen
